The text below walks through data of PubChem BioAssay (NCI).

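Test compounds were applied to cells in 96-well plates for 48 hours at 5 doses. GI50 marks 50% less growth. TGI: total growth inhibition.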 Bounds are passed on as bounds.

Holding throughout (assay): NCI anticancer screen, dose series, 48 h
The test system of assay [1] is HT29 colon.
The subject of assay [2] is U251 CNS.
For assay [3], the system named is SN12C renal.
Assay [4] relates to SF-539 CNS.
Assay [5] relates to SK-MEL-2 melanoma.
The subject of assay [6] is HCT-15 colon.
Assay [7] has as its system DU-145 prostate.
The test system of assay [8] is A549 NSCLC.
In assay [9] the test system is SK-MEL-5 melanoma.
Assay [10] has as its system SNB-19 CNS.

As to `CCOC(=O)Nc1nc2ccc(OC)cc2s1`, the GI50 in [1], in assay [2], in assay [3], in [4], in [5] and in assay [6] was more than 100 µM in each case. The GI50 in [7], in assay [8], in [9] and in [10] was more than 100 µM each time. Moreover, the TGI in [1], in assay [2], in [3], in assay [4], in assay [5] and in [6] was more than 100 µM each time. Further, the TGI in assay [7], in assay [8], in assay [9] and in [10] was more than 100 µM each time.
Consider `COc1cc(F)c(F)c(Nc2ccc(I)cc2F)c1NS(=O)(=O)C1(C[C@H](O)CO)CC1`, for which the GI50 was 0.0308 µM in assay [1]; 2.09 µM in [2]; 1.9 µM in assay [3]; more than 6.57 µM in [4]; 0.0416 µM in [5]; 1.67 µM in assay [6]. The GI50 was 5.02 µM in assay [7], 0.628 µM in assay [8], 1.02 µM in assay [9] and 1.83 µM in assay [10]. Also, the TGI in [1] was more than 10 µM; in assay [2], more than 10 µM; in assay [3], more than 10 µM; in [4] it was more than 10 µM; in assay [5] it was more than 2.01 µM; in assay [6], more than 10 µM. For the same compound, the TGI in assay [7], in assay [8], in assay [9] and in assay [10] was more than 10 µM each time.
`COc1ccccc1C#Cc1ccccc1C#CCCCCO`: the GI50 was 8.58 µM in assay [1]; 18.7 µM in assay [2]; 17.5 µM in [3]; 14.4 µM in assay [4]; 20.1 µM in assay [5]; 19.9 µM in [6]. Also, the GI50 was 14.3 µM in assay [7], 16.3 µM in assay [8], 14.1 µM in assay [9] and 16.7 µM in [10]. Further, the TGI in assay [1] came out at 29 µM; in assay [2], 37.3 µM; in [3], 34.5 µM; in assay [4] it was 29.1 µM; in [5] it was 41.6 µM; in assay [6], 48.9 µM. In addition, the TGI in [7] is 29.5 µM; in assay [8] it was 36.5 µM; in [9], 29.5 µM; in assay [10], 32.8 µM.
With `Nc1ccccc1C#C/C=C\C#Cc1ccc(OCCCNC(=O)c2cc3ccccc3[nH]2)cc1`, the GI50 in assay [1] is 32 µM; in assay [2], 12.5 µM; in [3], 7.32 µM; in assay [4], 18.2 µM; in [5], more than 100 µM; in assay [6] it was more than 100 µM. The GI50 in assay [7] was 35.4 µM; in [8], 11.6 µM; in [9] it was 2.09 µM; in assay [10] it was 20.6 µM. Also, the TGI is more than 100 µM in assay [1]; 25 µM in assay [2]; 39.8 µM in assay [3]; 37.5 µM in [4]; more than 100 µM in [5]; more than 100 µM in [6]. The TGI in assay [7] is more than 100 µM; in [8], 31.3 µM; in assay [9] it was 25.7 µM; in assay [10], 56.8 µM.
Regarding `COc1cc2ncn(-c3cc(OCc4ccccc4C(F)(F)F)c(C(=O)N(C)C)s3)c2cc1OC`, the GI50 in assay [1] is more than 25 µM; in assay [2] it was more than 25 µM; in assay [3] it was 24.6 µM; in [4] it was more than 25 µM; in [5], more than 20.2 µM; in assay [6], more than 25 µM. Besides, the GI50 in [7] was more than 25 µM; in [8], 24.9 µM; in [9], 6.7 µM; in assay [10] it was more than 25 µM. Moreover, the TGI in assay [1], in [2], in assay [3], in assay [4], in assay [5] and in assay [6] was more than 25 µM in each case. Also, the TGI in assay [7] is more than 25 µM; in [8] it was more than 25 µM; in [9] it was more than 13.1 µM; in assay [10] it was more than 25 µM.
Regarding `O=C(c1nc2ccc([N+](=O)[O-])cc2[nH]c1=O)C(O)c1ccc2c(c1)OCO2` (stereo not given), the TGI in assay [1], in assay [2], in [3], in [4], in [5] and in assay [6] was more than 100 µM throughout. Moreover, the TGI in assay [7], in assay [8], in assay [9] and in assay [10] was more than 100 µM in each case.
For the compound `COc1ccc(-c2cs/c(=N\N=C\c3ccc(O)cc3O)n2/N=C/c2ccc(O)cc2O)cc1`, the GI50 is 2.41 µM in [1]; 1.86 µM in assay [2]; 2.18 µM in assay [3]; 1.9 µM in assay [4]; 2.14 µM in assay [5]; 1.73 µM in assay [6]. Moreover, the GI50 in [7] was 2.21 µM; in assay [8] it was 1.89 µM; in assay [9], 1.69 µM; in assay [10] it was 2.46 µM. The TGI stood at 5.26 µM in [1]; 3.91 µM in assay [2]; 5.35 µM in [3]; 3.75 µM in assay [4]; 4.87 µM in [5]; 5.12 µM in [6]. The TGI was 5.84 µM in assay [7], 4.62 µM in [8], 3.07 µM in assay [9] and 6.84 µM in assay [10].
